Test results taken from patent publication US4155931A, “Ureylene phenylene anionic naphthalenesulfonic acids” (American Cyanamid Company, priority 1978, dated 1979).
Counter-ions that a name gives are not always drawn.

How the values were obtained:
[1] = test system: complement system; conditions: reported in literature or known; cited from earlier work
[2] = target: activated human C1 (Homo sapiens, UniProt P09871); test: Test Code 026 (C1 inhibitor): ability of activated human C1 to destroy fluid phase human C2 in the presence of C4; assay type: biochemical; conditions: two-fold serial dilution assay, higher well number indicates higher activity
From the text: (§1) An active inhibitor protects C2 from C1 and C4; (ii) Test Code 035 (C3-C9 inhibitor)--This test determines the ability of the late components of human complement (C3-C9) to lyse EAC 142 in the presence of appropriate dilutions of the test compound. An active inhibitor protects EAC 142 from lysis by human C3-C9; (iii) Test Code 036 (C-Shunt inhibitor)--In this test human erythrocytes rendered fragile are lysed in autologous serum via the shunt pathway activated by cobra venom factor in the presence of appropriate dilutions of the test compound. Inhibition of the shunt pathway results in failure of lysis; (iv) Forssman Vasculitis Test--Here, the well known complement dependent lesion, Forssman vasculitis, is produced in guinea pigs by intradermal injection of rabbit anti-Forssman antiserum. The lesion is measured in terms of diameter, edema and hemorrhage and the extent to which a combined index of these is inhibited by prior intraperitoneal injection of the test compound at 200 mg/kg is then reported, unless otherwise stated; (v) Forssman Shock Test--Lethal shock is produced in guinea pigs by an i.v. injection of anti-Forssman antiserum and the harmonic mean death time of treated guinea pigs is compared with that of simultaneous controls; (vi) Complement Level Reduction Test--In this test, the above dosed guinea pigs, or others, are bled for serum and the complement level is determined in undiluted serum by the capillary tube method of U.S. Pat. No. 3,876,376 and compared to undosed control guinea pigs; and (vii) Cap 50 Test--Here, appropriate amounts of the test compound are added to a pool of guinea pig serum in vitro, after which the undiluted serum capillary tube assay referred to above is run. The concentration of compound inhibiting 50% is reported.
(§2) **Activity in wells a serial dilution assay. Higher well number indicates
(§3) higher activity. The serial dilutions are two-fold.

[3] = test system: late components of human complement (C3-C9); test: Test Code 035 (C3-C9 inhibitor, C-Late): lysis of EAC 142 by late components of human complement; assay type: cell-based; conditions: two-fold serial dilution assay
From the text: as §1, §2, §3

[4] = test system: shunt pathway; test: Test Code 036 (C-Shunt inhibitor): lysis of fragile human erythrocytes in autologous serum via shunt pathway activated by cobra venom factor; assay type: cell-based; conditions: Table II (intermediates); two-fold serial dilution assay
From the text: as §1, §2, §3

[5] = test system: whole complement; test: Complement Level Reduction Test: whole complement in serum of dosed guinea pigs, capillary tube assay; assay type: in vivo; conditions: guinea pig, intraperitoneal, 200 mg/kg
[6] = reported in literature; cited from earlier work
[7] = test system: total hemolytic complement activity of human serum; conditions: in vitro and in vivo, reported in literature; cited from earlier work
[8] = Table I, higher well number indicates higher activity

Compound	Cl 026 (C1 inhibitor) ([2]; Table II (intermediates))	C-Late 035 (C3-C9 inhibitor) ([3]; Table II (intermediates))	Shunt Inhibition 036 [4]	Cl 026 (C1 inhibitor) ([2]; Table I)	C-Late 035 (C3-C9 inhibitor) [3, 8]	also measured
heparin	–	–	–	–	–	complement inhibitor / anticomplementary effect [1]: anticomplementary effect
Cc1ccc(S(=O)(=O)Nc2ccc(S(=O)(=O)[O-])c3cc(S(=O)(=O)[O-])cc(S(=O)(=O)[O-])c23)cc1NC(=O)c1cc(N)cc(C(=O)O)c1.[Na+].[Na+].[Na+] [5-Amino-2'-methyl-5'-(4,6,8-trisulfo-1-naphthylsulfamoyl)-isophthalanilic acid, trisodium salt]	+2 Wells	N	N	–	–	–
Nc1ccc2cc(S(=O)(=O)[O-])cc(O)c2c1N=Nc1ccc(NC(=O)Nc2ccc(N=Nc3c(N)ccc4cc(S(=O)(=O)[O-])cc(O)c34)c(S(=O)(=O)[O-])c2)cc1S(=O)(=O)[O-].[Na+].[Na+].[Na+].[Na+] [chlorazol fast pink, 3,3'-ureylenebis[6-(2-amino-8-hydroxy-6-sulfo-1-naphthylazo)benzenesulfonic acid], tetrasodium salt]	–	–	–	–	–	complement inhibitor / anticomplementary effect [1]: anticomplementary effect
Nc1ccc(C(=O)Nc2cccc(S(=O)(=O)Nc3cc(S(=O)(=O)O)cc4cc(S(=O)(=O)O)cc(S(=O)(=O)O)c34)c2)c(S(=O)(=O)O)c1 [8-[N^3-(4-Amino-2-sulfobenzoyl)metanilamido]-1,3,6-naphthalenetrisulfonic acid, tetrasodium salt]	+3 Wells	N	N	–	–	–
Cc1ccc(NC(=O)c2ccc(N)cc2S(=O)(=O)O)cc1S(=O)(=O)Nc1cc(S(=O)(=O)O)cc2cc(S(=O)(=O)O)cc(S(=O)(=O)O)c12 [8-[5-(4-Amino-2-sulfobenzamido)-o-toluenesulfonamido]-1,3,6-naphthalenetrisulfonic acid, tetrasodium salt]	+4 Wells	N	N	–	–	–
Cc1ccc(C(=O)Nc2ccc(S(=O)(=O)O)c3cc(S(=O)(=O)O)cc(S(=O)(=O)O)c23)cc1NC(=O)c1cc(NC(=O)Nc2cc(C(=O)O)cc(C(=O)Nc3cc(C(=O)Nc4ccc(S(=O)(=O)O)c5cc(S(=O)(=O)O)cc(S(=O)(=O)O)c45)ccc3C)c2)cc(C(=O)O)c1 [5,5"-Ureylenebis[2'-methyl-5"-[(4,6,8-trisulfo-1-naphthyl)carbamoyl]isophthalanilic acid], octasodium salt]	–	–	–	+5 Wells	+2 Wells	% Inhibition ([5]; 30 minutes): -17%; % Inhibition ([5]; 60 minutes): -50%; % Inhibition ([5]; 120 minutes): -57%
NC[C@H]1CC[C@H](C(=O)O)CC1 [tranexamic acid]	–	–	–	–	–	use in treatment of hereditary angioneurotic edema [6]: used with success in the treatment of hereditary angioneurotic edema
Cc1ccc(C(=O)Nc2cc(C(=O)O)cc(C(=O)Nc3ccc(S(=O)(=O)O)c4cc(S(=O)(=O)O)cc(S(=O)(=O)O)c34)c2)cc1N [5-(3-Amino-p-toluamido)-N-(4,6,8-trisulfo-1-naphthyl)isophthalamic acid, trisodium salt]	+3 Wells	N	N	–	–	–
Cc1ccc(C(=O)Nc2cc(C(=O)O)cc(C(=O)Nc3ccc(S(=O)(=O)O)c4cc(S(=O)(=O)O)cc(S(=O)(=O)O)c34)c2)cc1NC(=O)Nc1cc(C(=O)Nc2cc(C(=O)O)cc(C(=O)Nc3ccc(S(=O)(=O)O)c4cc(S(=O)(=O)O)cc(S(=O)(=O)O)c34)c2)ccc1C [5,5'-Ureylenebis[(4-methyl-3,1-phenylenecarbonyl)imino]bis[N-(4,6,8-trisulfo-1-naphthyl)isophthalamic acid], hexasodium slt]	–	–	–	+5 Wells	+2 Wells	–
Cc1ccc(NC(=O)c2ccc(NC(=O)Nc3ccc(C(=O)Nc4ccc(C)c(S(=O)(=O)Nc5cc(S(=O)(=O)O)cc6cc(S(=O)(=O)O)cc(S(=O)(=O)O)c56)c4)c(S(=O)(=O)O)c3)cc2S(=O)(=O)O)cc1S(=O)(=O)Nc1cc(S(=O)(=O)O)cc2cc(S(=O)(=O)O)cc(S(=O)(=O)O)c12 [8,8'-[Ureylenebis[[(2-sulfo-4,1-phenylenecarbonyl)imino](2-methyl-4,1-phenylene)sulfonyl]imino]]di-1,3,6-naphthalenetrisulfonic acid, octasodium salt]	–	–	–	+4 Wells	+2 Wells	–
Cc1ccc(C(=O)Nc2ccc(S(=O)(=O)O)c3cc(S(=O)(=O)O)cc(S(=O)(=O)O)c23)cc1NC(=O)c1ccc(N)cc1S(=O)(=O)O [8-[3-(4-Amino-2-sulfobenzamido)-p-toluamido]-1,3,5-naphthalenetrisulfonic acid, tetrasodium salt]	+2 Wells	N	N	–	–	–
pentosan-polysulfoester	–	–	–	–	–	anticomplementary activity of human serum (reduction in total hemolytic complement activity) [7]: anticomplementary activity of human serum
Cc1ccc(C(=O)Nc2ccc(S(=O)(=O)[O-])c3cc(S(=O)(=O)[O-])cc(S(=O)(=O)[O-])c23)cc1NC(=O)c1cc(NC(=O)Nc2cc(C(=O)O)cc(C(=O)Nc3cc(C(=O)Nc4ccc(S(=O)(=O)[O-])c5cc(S(=O)(=O)[O-])cc(S(=O)(=O)[O-])c45)ccc3C)c2)cc(C(=O)O)c1.[Na+].[Na+].[Na+].[Na+].[Na+].[Na+] [5,5"-Ureylenebis[2'-methyl-5'-[(4,6,8-trisulfo-1-naphthyl)carbamoyl]isophthalanilic acid], hexasodium salt]	–	–	–	+5 Wells	+2 Wells	–
Cc1cc(C)c(S(=O)(=O)Nc2cc(S(=O)(=O)[O-])cc3cc(S(=O)(=O)[O-])cc(S(=O)(=O)[O-])c23)cc1NC(=O)c1ccc(NC(=O)Nc2ccc(C(=O)Nc3cc(S(=O)(=O)Nc4cc(S(=O)(=O)[O-])cc5cc(S(=O)(=O)[O-])cc(S(=O)(=O)[O-])c45)c(C)cc3C)c(S(=O)(=O)[O-])c2)cc1S(=O)(=O)[O-].[Na+].[Na+].[Na+].[Na+].[Na+].[Na+].[Na+].[Na+] [8,8'-[Ureylenebis[(2-sulfo-4,1-phenylenecarbonyl)imino(4,6-dimethyl-3,1-phenylenesulfonyl)imino]]di-1,3,6-naphthalenetrisulfonic acid, octasodium salt]	–	–	–	+5 Wells	+2 Wells	–
Cc1ccc(C(=O)Nc2ccc(S(=O)(=O)O)c3cc(S(=O)(=O)O)cc(S(=O)(=O)O)c23)cc1NC(=O)c1cc(N)cc(C(=O)O)c1 [5-Amino-2'-methyl-5'-[(4,6,8-trisulto-1-naphthyl)carbamoyl]isophthalanilic acid, trisodium salt]	+2 Wells	N	N	–	–	–
Cc1ccc(C(=O)Nc2ccc(S(=O)(=O)[O-])c3cc(S(=O)(=O)[O-])cc(S(=O)(=O)[O-])c23)cc1NC(=O)c1ccc(NC(=O)Nc2ccc(C(=O)Nc3cc(C(=O)Nc4ccc(S(=O)(=O)[O-])c5cc(S(=O)(=O)[O-])cc(S(=O)(=O)[O-])c45)ccc3C)c(S(=O)(=O)[O-])c2)cc1S(=O)(=O)[O-].[Na+].[Na+].[Na+].[Na+].[Na+].[Na+].[Na+].[Na+] [8,8'-[Ureylenebis[[(2-sulfo-4,1-phenylenecarbonyl)imino]-(4-methyl-3,1-phenylenecarbonyl)imino]]di-1,3,5-naphthalenetrisulfonic acid, octasodium salt]	–	–	–	+3 Wells	+1 Wells	–
NCCCCCC(=O)O [epsilon-aminocaproic acid]	–	–	–	–	–	use in treatment of hereditary angioneurotic edema [6]: used with success in the treatment of hereditary angioneurotic edema
Cc1ccc(C(=O)Nc2ccc(S(=O)(=O)O)c3cc(S(=O)(=O)O)cc(S(=O)(=O)O)c23)cc1NC(=O)c1cccc(NC(=O)Nc2cccc(C(=O)Nc3cc(C(=O)Nc4ccc(S(=O)(=O)O)c5cc(S(=O)(=O)O)cc(S(=O)(=O)O)c45)ccc3C)c2)c1 [Suramin, reference compound]	–	–	–	+4 Wells	+2 Wells	complement inhibitor / anticomplementary effect [1]: moderately active as a complement inhibitor
